In BigSolDB 2.1:

C[C@H](CCC(=O)O)[C@H]1CC[C@H]2[C@@H]3[C@H](O)C[C@@H]4C[C@H](O)CC[C@]4(C)[C@H]3C[C@H](O)[C@]12C
solubility (mole fraction)
Settings | in 2-pentanone | in cyclohexanone | in ethyl acetate | in furfural | in gamma-valerolactone | in methyl acetate | in n-butanol | in n-butyl acetate | in n-hexanol | in n-octanol
283.15 K | 0.00141 | 0.00753 | 0.000154 | 3.55e-05 | 0.000822 | 7.59e-05 | 0.00219 | 0.000224 | 0.0156 | 0.0154
293.15 K | 0.00164 | 0.00842 | 0.000242 | 7.5e-05 | 0.00154 | 0.000128 | 0.00245 | 0.000284 | 0.0166 | 0.0171
303.15 K | 0.00206 | 0.00952 | 0.000392 | 0.000127 | 0.00258 | 0.000232 | 0.0027 | 0.000378 | 0.0182 | 0.0183
313.15 K | 0.00247 | 0.0106 | 0.000536 | 0.000197 | 0.00412 | 0.000489 | 0.00296 | 0.000492 | 0.0202 | 0.0201
323.15 K | 0.00299 | 0.012 | 0.000713 | 0.000349 | 0.00604 | 0.000811 | 0.00337 | 0.000613 | 0.0223 | 0.0222
333.15 K | 0.00345 | 0.0137 | 0.000942 | 0.000563 | 0.00978 | – | 0.00389 | 0.000765 | 0.0236 | 0.0242

C[C@H](CCC(=O)O)[C@H]1CC[C@H]2[C@@H]3CC[C@@H]4C[C@H](O)CC[C@]4(C)[C@H]3C[C@H](O)[C@]12C
solubility (mole fraction)
Settings | in 2-pentanone | in cyclohexanone | in ethyl acetate | in furfural | in gamma-valerolactone | in methyl acetate | in n-butanol | in n-butyl acetate | in n-hexanol | in n-octanol
283.15 K | 0.000911 | 0.00147 | 0.000187 | 0.000227 | 0.000904 | 0.000224 | 0.00134 | 0.000222 | 0.00773 | 0.00898
293.15 K | 0.00145 | 0.00214 | 0.000304 | 0.000293 | 0.00147 | 0.000382 | 0.00159 | 0.000275 | 0.00902 | 0.0116
303.15 K | 0.00198 | 0.00302 | 0.000448 | 0.000478 | 0.00217 | 0.00071 | 0.00189 | 0.000415 | 0.0102 | 0.0135
313.15 K | 0.00286 | 0.00416 | 0.000771 | 0.000599 | 0.00304 | 0.00107 | 0.00246 | 0.000609 | 0.0125 | 0.016
323.15 K | 0.00378 | 0.00567 | 0.0011 | 0.000913 | 0.00509 | 0.0016 | 0.00275 | 0.000875 | 0.0153 | 0.0192
333.15 K | 0.0049 | 0.00744 | 0.00147 | 0.0014 | 0.00757 | – | 0.00315 | 0.00127 | 0.0174 | 0.0232
